Patent publication US10214561B2, “Peptide having activity of inhibiting production of toxin by bacterium belonging to genus clostridium” (MIYARISAN PHARMACEUTICAL CO., LTD., priority 2014, dated 2019)
Entries after “also recorded” stand apart in the source; their conditions may differ. Where two headings read alike, the source gives them in different places. No end group written: not given here.

Tests used:
theta-toxin (pfoA) gene = assay type: cell-based, Clostridium welchii strain 13
[1] = system: Clostridium welchii theta-toxin (pfoA); assay type: cell-based, Clostridium welchii strain 13
[2] = read-out: IC50 of the inhibitory activity on the toxin production (pfoA expression amount as indicator)

Row | Substance | agonist activity or antagonist activity (pfoA expression) [1] | IC50 (μM) [1] | also measured
1 | ACFWAH [peptide 6n] |  |  | activity of inhibiting toxin expression (theta-toxin pfoA, Northern blot, FIG. 5) (theta-toxin (pfoA) gene): activity of inhibiting toxin expression was shown; also recorded: inhibitory activity
2 | AgrDcb-lactam: Peptide of Formula (2), CFWAH lactam obtained by ammonia conversion of AgrDcb-thiolactone (lactam (positions not given here); also: lactam from ammonia conversion of thiolactone, places not given here) |  |  | expression of the gene encoding theta-toxin (pfoA) (FIG. 9) [1]: inhibited; IC50 [1, 2]: 10 µM
3 | CAWAA [SEQ ID NO. 33 (Benzyloxycarbonyl group)] | antagonist activity |  | 
4 | CAWFA [SEQ ID NO. 20 (Hydrogen atom)] |  |  | IC50 ([1]; read-out: IC50): 0.3 µM
5 | CAWFT [SEQ ID NO. 37 (Benzyloxycarbonyl group), reference compound] |  | (No activity) | 
6 | CLAFT [SEQ ID NO. 39 (Benzyloxycarbonyl group), reference compound] | neither the agonist activity nor antagonist activity | (No activity) | 
7 | CLFWS [SEQ ID NO. 42 (Benzyloxycarbonyl group), reference compound] |  | (No activity) | 
8 | CLFWT [SEQ ID NO. 22 (Benzyloxycarbonyl group)] | antagonist activity |  | 
9 | CLFWT [SEQ ID NO. 22 (Hydrogen atom)] |  |  | IC50 ([1]; read-out: IC50): 0.5 µM
10 | CLWAS [SEQ ID NO. 35 (Benzyloxycarbonyl group)] |  |  | IC50 ([1]; read-out: IC50): 1 µM
11 | CLWAT [SEQ ID NO. 31 (Benzyloxycarbonyl group)] | antagonist activity |  | 
12 | CLWFA [SEQ ID NO. 38 (Benzyloxycarbonyl group), reference compound] | agonist activity | (Agonist) | 
13 | CLWFS [SEQ ID NO. 21 (Benzyloxycarbonyl group)] | antagonist |  | 
14 | CLWFT [SEQ ID NO. 40 (Benzyloxycarbonyl group), reference compound] | agonist activity | (Agonist) | 
15 | CLWYT [SEQ ID NO. 41 (Benzyloxycarbonyl group), reference compound] |  | (Agonist) | 
16 | Cys-Phe-Trp-Ala-His [cyclic CFWAH] |  |  | expression of the gene encoding theta-toxin (pfoA) (FIG. 9) [1]: inhibited; IC50 [1, 2]: 10 µM; activity of inhibiting toxin expression (theta-toxin pfoA, Northern blot, FIG. 5) (theta-toxin (pfoA) gene): particularly high activity; also recorded: inhibitory activity
